# Laboratory results reported in article PMC5355235, “FLT3 activating mutations display differential sensitivity to multiple tyrosine kinase inhibitors” (Oncotarget, 2017).
# Where two headings read alike, the source gives them in different places.
# What was measured:
# [1] = test system: BaF3 FLT3 D835G mutant cells; experiment: MTT growth inhibition assay, BaF3 FLT3 D835G cells; type: cell-based; conditions: no IL-3, 48 h, read-out: Proliferation IC50
# Procedure: (§1) Figure 1 Growth of AL mutants in the presence of FLT3 TKI The BaF3 AL mutants were grown in the absence of IL-3 and analyzed by treatment in increasing concentrations of FLT3 TKI for 48 hours, after which growth inhibition was assessed using the MTT assay. Means are representative of at least three independent experiments.
# (§2) The cells were grown in the absence of IL3 and analyzed by treatment in increasing concentrations of FLT3 TKI for 48 hours, after which growth inhibition was assessed using the MTT assay. Each experiment was performed at least three times and representative results are shown.
# (§3) Based on Trypan Blue exclusion, 2 × 10^4 viable cells were seeded in quadruplicate in a 96-well microtiter plate in the presence or absence of inhibitor for 48 h. The effect of drug activity on cell viability was measured using the 3-(4,5-Dimethylthiazol-2-yl)-2,5-diphenyltetrazolium bromide (MTT) assay according to the manufacturer's instructions (Roche Applied Science, Indianapolis, IN, USA). Following treatment, cells were incubated for 4 h in MTT followed by dissolution in solubilization buffer overnight. Absorbance was measured at 570 nm on a Bio-Rad plate reader (Hercules, CA, USA). […] Results shown are presented as means and are representative of at least three independent experiments.
# [2] = test system: BaF3 FLT3 D835L+K mutant cells; experiment: MTT growth inhibition assay, BaF3 FLT3 D835L+K cells; type: cell-based; conditions: no IL-3, 48 h, read-out: Proliferation IC50
# Procedure: as §1, §2, §3
# BaF3/ITD cells = experiment: MTT growth inhibition assay, BaF3 FLT3-ITD cells; type: cell-based; conditions: no IL-3, 48 h, read-out: Proliferation IC50
# Procedure: as §1, §2, §3
# [3] = test system: BaF3 FLT3 I836L+D mutant cells; experiment: MTT growth inhibition assay, BaF3 FLT3 I836L+D cells; type: cell-based; conditions: no IL-3, 48 h, read-out: Proliferation IC50
# Procedure: as §1, §2, §3
# [4] = test system: BaF3 FLT3 I836T mutant cells; experiment: MTT growth inhibition assay, BaF3 FLT3 I836T cells; type: cell-based; conditions: no IL-3, 48 h, read-out: Proliferation IC50
# Procedure: as §1, §2, §3
# [5] = test system: BaF3 FLT3 I836S mutant cells; experiment: MTT growth inhibition assay, BaF3 FLT3 I836S cells; type: cell-based; conditions: read-out: Proliferation IC50
# Procedure: as §1, §2, §3
# [6] = test system: BaF3 FLT3 840G+S mutant cells; experiment: MTT growth inhibition assay, BaF3 FLT3 840G+S cells; type: cell-based; conditions: no IL-3, 48 h, read-out: Proliferation IC50
# Procedure: as §1, §2, §3
# [7] = test system: BaF3 FLT3 D835N mutant cells; experiment: MTT growth inhibition assay, BaF3 FLT3 D835N cells; type: cell-based; conditions: no IL-3, 48 h, read-out: Proliferation IC50
# Procedure: as §1, §2, §3
# [8] = test system: BaF3 FLT3 D835Y mutant cells; experiment: MTT growth inhibition assay, BaF3 FLT3 D835Y cells; type: cell-based; conditions: no IL-3, 48 h, read-out: Proliferation IC50
# Procedure: as §1, §2, §3
# [9] = test system: BaF3 FLT3 D593D mutant cells; experiment: MTT growth inhibition assay, BaF3 FLT3 D593D cells; type: cell-based; conditions: no IL-3, 48 h, read-out: Proliferation IC50
# Procedure: as §1, §2, §3
# [10] = test system: BaF3 FLT3 D835A mutant cells; experiment: MTT growth inhibition assay, BaF3 FLT3 D835A cells; type: cell-based; conditions: read-out: Proliferation IC50
# Procedure: as §1, §2, §3
# FLT3/ITD = FLT3/ITD autophosphorylation and signaling pathways, Western blot; type: cell-based; conditions: FLT3/ITD cells, 1 h, concentration-dependent
# Procedure: (§4) Activated FLT3 expression was measured by performing immunoprecipitation, SDS-PAGE and Western blotting as previously described. Specifically, 10^7 cells were washed in medium and treated with inhibitor for 1 h followed by stimulation with 25 ng/ml of FLT3 ligand for 15 minutes where indicated. Cells were washed twice with ice-cold PBS and lysed in 300 µl of NP-40 lysis buffer (150 mM NaCl, 20 mM TrisHCl (pH7.4), 10% glycerol, 1% NP-40, 10 mM EDTA, 100 mM NaF) with 2 mM Na3VO4 and protease inhibitors (Complete Tablets, Roche, Mannheim, Germany) at 4°C for 30 m. Cell lysate was harvested by centrifugation at 13,000 × g for 30 m at 4°C. FLT3 S-18 antibody was incubated with 500 µg lysate overnight at 4°C followed by immunoprecipitation with protein A-agarose beads for 2 h. Beads were washed once in Tris buffered saline with 1% Tween-20 (TBST) and twice in TBS. Samples were boiled in sodium dodecyl sulfate (SDS) sample buffer prior to separating in a 8% SDS-polyacrylamide gel (SDS-PAGE). Proteins were transferred to a polyvinyl diflouride (PVDF) membrane (Millipore, Bedford, MA, USA) and detected by 4G10 phosphotyrosine antibody and anti-FLT3 S-18 antibody. FLT3 was visualized using the Odyssey Infra Red Imaging System from Li-Cor (Lincoln, NE, USA) using AlexaFluor 680 goat anti-mouse and AlexaFluor 800 goat anti-rabbit antibodies. Phosphorylation of the FLT3 downstream signaling mediators, STAT5, AKT and MAP kinase was investigated by loading 50 µg of whole cell lysate and probing with the indicated antibodies. The membrane was washed and incubated in goat anti-rabbit secondary antibody conjugated to horseradish peroxidase followed by enhanced chemiluminescence (ECL). The membrane was subsequently stripped in 200 mM glycine buffer, pH 2.5 with 0.1% Tween-20 and reprobed for STAT5, AKT and MAP kinase expression using the respective antibodies.
# all FLT3 AL mutants = conditions: read-out: FLT3 autophosphorylation IC50, BaF3 cells, 1 h treatment, Western blot
# Procedure: as §4, with “Phosphorylation of the FLT3 downstream signaling mediators, STAT5, AKT and MAP kinase was investigated by loading 50 µg of whole cell lysate and probing with the indicated antibodies. The membrane was washed and incubated in goat anti-rabbit secondary antibody conjugated to horseradish peroxidase followed by enhanced chemiluminescence (ECL). The membrane was subsequently stripped in 200 mM glycine buffer, pH 2.5 with 0.1% Tween-20 and reprobed for STAT5, AKT and MAP kinase expression using the respective antibodies.” left out
# BaF3 FLT3 D835Y cells = experiment: Engraftment of BaF3 D835Y luciferase cells in BALB/c mice, bioluminescence imaging; type: in vivo; conditions: day 5 to day 9
# Procedure: On day 5 following transplantation, the level of engraftment was assessed by imaging mice for bioluminescence on an IVIS Spectrum imager. […] This experiment was repeated three times.
# Cells were sorted for GFP and CD135 expression on a FACS AriaII cytometer using FACSDiva software. For engraftment, 2 ×10^6 cells were injected via tail vein into BALB/c mice (Jackson Laboratories, Bar Harbor, ME, USA) (day 0). […] [36, 37] […] Mice were imaged by intraperitoneal injection of luciferin (3 mg) and visualizing on an IVIS Spectrum imager (Caliper LifeSciences, Hopkinton, MA, USA) using Living Image software for analysis on day 5 following inoculation to monitor engraftment and on day 9 to assess drug effect. All animal procedures were conducted in accordance with the policy of the Johns Hopkins University School of Medicine Animal Care and Use Committee.
# FLT3 D835Y = target: T1, FLT3 D835Y (Homo sapiens, UniProt P36888, D835Y); experiment: FLT3 autophosphorylation, immunoprecipitation/Western blot, D835Y; type: cell-based; conditions: FLT3 D835Y cells, highest concentrations tested, 1 h
# T1 construct: expressed in transfected cells; host or cells: BaF3
# T1 sequence (P36888 27-993 D835Y): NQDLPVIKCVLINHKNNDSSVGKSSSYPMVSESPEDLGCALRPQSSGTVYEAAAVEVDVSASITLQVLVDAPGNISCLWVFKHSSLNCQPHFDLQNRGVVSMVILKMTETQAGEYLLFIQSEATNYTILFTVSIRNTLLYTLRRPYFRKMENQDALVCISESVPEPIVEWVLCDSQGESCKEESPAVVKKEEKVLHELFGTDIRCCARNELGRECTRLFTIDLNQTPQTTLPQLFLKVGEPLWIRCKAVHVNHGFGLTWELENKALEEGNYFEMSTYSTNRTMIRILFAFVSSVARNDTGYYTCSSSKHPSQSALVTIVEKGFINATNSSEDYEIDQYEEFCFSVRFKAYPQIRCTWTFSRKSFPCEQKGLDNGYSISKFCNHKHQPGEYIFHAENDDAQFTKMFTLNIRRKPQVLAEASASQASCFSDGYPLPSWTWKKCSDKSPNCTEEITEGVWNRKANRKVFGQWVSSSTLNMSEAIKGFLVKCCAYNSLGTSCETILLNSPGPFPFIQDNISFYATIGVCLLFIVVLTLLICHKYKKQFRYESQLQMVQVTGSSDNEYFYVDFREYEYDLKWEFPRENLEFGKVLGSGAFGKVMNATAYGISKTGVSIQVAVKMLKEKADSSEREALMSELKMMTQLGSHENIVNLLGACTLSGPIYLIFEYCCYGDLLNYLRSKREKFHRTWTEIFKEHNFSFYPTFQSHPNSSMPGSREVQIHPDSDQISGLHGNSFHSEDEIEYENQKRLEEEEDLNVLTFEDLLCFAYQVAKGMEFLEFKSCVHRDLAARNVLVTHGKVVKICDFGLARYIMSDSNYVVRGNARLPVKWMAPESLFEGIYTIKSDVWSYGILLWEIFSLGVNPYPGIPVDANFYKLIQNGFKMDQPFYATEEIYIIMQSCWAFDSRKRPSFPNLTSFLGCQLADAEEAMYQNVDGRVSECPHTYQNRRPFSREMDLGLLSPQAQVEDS
# Procedure: as §4, with “Phosphorylation of the FLT3 downstream signaling mediators, STAT5, AKT and MAP kinase was investigated by loading 50 µg of whole cell lysate and probing with the indicated antibodies. The membrane was washed and incubated in goat anti-rabbit secondary antibody conjugated to horseradish peroxidase followed by enhanced chemiluminescence (ECL). The membrane was subsequently stripped in 200 mM glycine buffer, pH 2.5 with 0.1% Tween-20 and reprobed for STAT5, AKT and MAP kinase expression using the respective antibodies.” left out
# [11] = Mus musculus, BaF3 FLT3 I836S, no IL-3, 48 h, MTT
# [12] = Mus musculus, BaF3 FLT3 D835A, no IL-3, 48 h, MTT
# [13] = BaF3 FLT3 I836S, no IL-3, 48 h, MTT
# [14] = BaF3 FLT3 D835A, no IL-3, 48 h, MTT
SMILES,IC50 ([1]; Mus musculus) [nM],IC50 ([2]; Mus musculus) [nM],IC50 (BaF3/ITD cells; Mus musculus) [nM],IC50 ([3]; Mus musculus) [nM],IC50 ([4]; Mus musculus) [nM],"IC50 [5, 11] [nM]",IC50 ([6]; Mus musculus) [nM],IC50 ([7]; Mus musculus) [nM],IC50 ([8]; Mus musculus) [nM],IC50 ([9]; Mus musculus) [nM],"IC50 [10, 12] [nM]",other results
O=C(c1ccc(/C=C/c2n[nH]c3ccccc23)cc1)N1CCNCC1 [KW2449],56,> 200,41,> 200,31.9,> 200,35,58.3,> 200,> 200,62,–
C[C@]12O[C@H](C[C@]1(O)CO)n1c3ccccc3c3c4c(c5c6ccccc6n2c5c31)CNC4=O [Lestaurtinib],6,2.1,8.6,2.1,13.4,–,8,7.6,9.8,8,–,"Inhibition of FLT3 autophosphorylation and phosphorylation of STAT5, AKT and Map kinase (FLT3/ITD): inhibited FLT3 autophosphorylation; IC50 (all FLT3 AL mutants): ≤ 5 nM; IC50 ([5]; Mus musculus, BaF3, 48 h): 15 nM; IC50 ([10]; Mus musculus, BaF3, 48 h): 5 nM; Leukemic burden (bioluminescence) on day 9 (BaF3 FLT3 D835Y cells; 20 mg/kg twice daily subcutaneous): greatly reduced"
Cc1ccc(F)c(NC(=O)Nc2ccc(-c3cccc4[nH]nc(N)c34)cc2)c1 [Linifanib],8.6,> 200,2.4,> 200,5.3,> 200,2.1,10.3,> 100,> 200,> 200,–
CO[C@@H]1[C@H](N(C)C(=O)c2ccccc2)C[C@H]2O[C@]1(C)n1c3ccccc3c3c4c(c5c6ccccc6n2c5c31)C(=O)NC4 [Midostaurin],–,–,–,–,–,–,12,–,–,–,–,–
COc1cc(Nc2ncc(F)c(Nc3ccc4c(n3)NC(=O)C(C)(C)O4)n2)cc(OC)c1OC [R406],–,–,–,–,–,–,–,–,–,–,–,"IC50 [1]: 141 nM; IC50 [2]: > 200 nM; IC50 (BaF3/ITD cells): 166 nM; IC50 [3]: > 200 nM; IC50 [4]: 152 nM; IC50 [5, 13]: > 200 nM; IC50 [6]: > 200 nM; IC50 [7]: 153 nM; IC50 [8]: > 200 nM; IC50 [9]: > 200 nM; IC50 [10, 14]: > 200 nM"
CNC(=O)c1cc(Oc2ccc(NC(=O)Nc3ccc(Cl)c(C(F)(F)F)c3)cc2)ccn1 [Sorafenib],34.5,> 200,18.5,> 200,48.2,10.2,5,31.6,> 2000,> 200,> 200,"Inhibition of FLT3 autophosphorylation and phosphorylation of STAT5, AKT and Map kinase (FLT3/ITD): inhibited FLT3 autophosphorylation; Inhibition of FLT3 autophosphorylation (FLT3 D835Y): markedly reduced or absent inhibition; Leukemic burden (bioluminescence) on day 9 (BaF3 FLT3 D835Y cells; 10 mg/kg once daily oral gavage): clear progression of leukemia"
CCN(CC)CCNC(=O)c1c(C)[nH]c(/C=C2\C(=O)Nc3ccc(F)cc32)c1C [Sunitinib],48.1,> 200,5.4,> 200,–,> 200,4,46.4,> 100,> 200,> 200,–
CNC(=O)[C@@]1(N)C[C@H]2O[C@]1(C)n1c3ccccc3c3c4c(c5c6ccccc6n2c5c31)C(=O)NC4 [TTT-3002],–,–,–,–,–,–,–,–,–,–,–,"IC50 [1]: < 1 nM; IC50 [2]: 6.7 nM; IC50 (BaF3/ITD cells): < 1 nM; IC50 [3]: 11.7 nM; IC50 [4]: 9.7 nM; IC50 [5, 13]: 9 nM; IC50 [6]: < 1 nM; IC50 [7]: < 1 nM; IC50 [8]: 4.1 nM; IC50 [9]: 2.8 nM; IC50 [10, 14]: 1.3 nM"
